Test system: Mushroom-derived tyrosinase
Assay: Tyrosinase inhibitory effect
Assay type: biochemical
Conditions: 1 mM L-tyrosin, pH 6.5, 25° C., 30 minutes, OD492; compared with kojic acid (positive control); FIGS. 4 to 6
Procedure: Mushroom-derived tyrosinase was sued as an enzyme source in the present experiment. Tyrosinase activities were assayed according to a slightly-modified conventionally known method (Life Sci., 1999, 65, 241-246). In detail, 20 μl of a mushroom-derived tyrosinase (1000 units) aqueous solution was added to 96-well microplate (Nunc, Denmark) to prepare 200 μl of the total volume of assay mixture containing 1 mM L-tyrosin solution and 50 mM phosphate buffer solution (pH 6.5). The assay mixture was cultured at a temperature of 25° C. for 30 minutes. After the culturing, an amount of the produced DOPA chrome in the reaction mixture was measured by using a microplate reader (Hewlett Packard) at 492 nm (OD492).
For O=C1NC(=O)/C(=C/c2ccc(O)cc2)S1 [Compound 1, (Z)-5-(4-hydroxybenzylidene)thiazolidine-2,4-dione], the tyrosinase inhibitory activities was “better tyrosinase inhibitory activities than a kojic acid”. In the case of O=C1NC(=O)C(=Cc2ccc(O)cc2O)C(=O)N1 [Compound 16, 5-(2,4-dihyroxybenzylidene)pyrimidine-2,4,6(1H,3H,5H)-trione], the tyrosinase inhibitory activities is reported as “better tyrosinase inhibitory activities than a kojic acid”. With [H]/N=C1/NC(=O)C(=Cc2ccc(OC)c(O)c2)S1 [Compound 115, (Z)-5-(3-hydroxy-4-methoxybenzylidene)-2-iminothiazolidin-4-one] the tyrosinase inhibitory activities was “better tyrosinase inhibitory activities than a kojic acid”.

Test system: not given
Assay: not given
Conditions: not given
Compound CCOc1cc(C=C2C(=O)NC(=O)NC2=O)ccc1O has a melting point of 244.7 to 246.1 °C. With COc1ccc(C=C2C(=O)NC(=O)NC2=O)cc1O the melting point was 279.3 to 281.4 °C. With COc1ccc(C=C2C(=O)NC(=O)NC2=O)cc1OC the melting point was over 300 °C. Work on COc1ccc(C=C2C(=O)NC(=O)NC2=O)c(OC)c1 yielded a melting point of 291.1 to 291.7 °C. With COc1cc(C=C2C(=O)NC(=O)NC2=O)cc(OC)c1OC the melting point was 274.8 to 275.4 °C. For O=C1NC(=S)NC(=O)C1=Cc1ccc(O)cc1O, the melting point was over 300 °C. COc1cc(C=C2C(=O)NC(=S)NC2=O)ccc1O showed a melting point of 260.9 to 263.6 °C. Work on CCOc1cc(C=C2C(=O)NC(=S)NC2=O)ccc1O yielded a melting point of 285 to 287.3 °C. With COc1ccc(C=C2C(=O)NC(=S)NC2=O)cc1O the melting point was 278.9 to 280.5 °C. With COc1ccc(C=C2C(=O)NC(=S)NC2=O)cc1OC the melting point was 269.9 to 271.7 °C. Work on COc1ccc(C=C2C(=O)NC(=S)NC2=O)c(OC)c1 yielded a melting point of 294.1 to 295.4 °C. For O=C1NC(=S)NC(=O)C1=Cc1ccccc1O, the melting point was 250.6 to 251.4 °C. For COc1cc(C=C2C(=O)NC(=S)NC2=O)cc(OC)c1OC, the melting point was 258.9 to 260.7 °C. COc1cc(C=C2C(=O)NC(=S)NC2=O)cc(OC)c1O showed a melting point of over 300 °C. In the case of O=C1NC(=O)/C(=C/c2cc(O)cc(O)c2)S1 [Compound 9, (Z)-5-(3,5-dihydroxybenzylidene)thiazolidine-2,4-dione], the melting point is reported as 288.4 to 290.2 °C. Compound COc1ccc(/C=C2\SC(=O)NC2=O)c(OC)c1 [Compound 10, (Z)-5-(2,4-dimethoxybenzylidene)thiazolidine-2,4-dione] has a melting point of 254.7 to 255.6 °C. In the case of COc1cc(/C=C2\SC(=O)NC2=O)cc(OC)c1OC [Compound 12, (Z)-5-(3,4,5-trimethoxybenzylidene)thiazolidine-2,4-dione], the melting point is reported as 179.1 to 181 °C. With O=C1NC(=O)/C(=C/c2ccc(O)cc2)N1 [Compound 25, (Z)-5-(4-hydroxybenzylidene)imidazolidine-2,4-dione] the melting point was over 300 °C. Compound CCOc1cc(/C=C2\NC(=O)NC2=O)ccc1O [Compound 28, (Z)-5-(3-ethoxy-4-hydroxybenzylidene)imidazolidine-2,4-dione] has a melting point of 253 to 255.4 °C. COc1ccc(/C=C2\NC(=O)NC2=O)c(OC)c1 [Compound 32, (Z)-5-(2,4-dimethoxybenzylidene)imidazolidine-2,4-dione] gave a melting point of 234.1 to 237.2 °C. With O=C1NC(=O)/C(=C/c2ccccc2O)N1 [Compound 33, (Z)-5-(2-hydroxybenzylidene)imidazolidine-2,4-dione] the melting point was 265.5 to 268.4 °C. In the case of COc1cc(/C=C2\NC(=O)NC2=O)cc(OC)c1OC [Compound 34, (Z)-5-(3,4,5-trimethoxybenzylidene)imidazolidine-2,4-dione], the melting point is reported as 266.3 to 267.2 °C. Compound COc1cc(/C=C2\CC(=O)NC2=O)ccc1O [Compound 39, (E)-3-(4-hydroxy-3-methoxybenzylidene)pyrrolidine-2,5-dione] has a melting point of 243.5 to 245.7 °C. CCOc1cc(/C=C2\CC(=O)NC2=O)ccc1O [Compound 40, (E)-3-(3-ethoxy-4-hydroxybenzylidene)pyrrolidine-2,5-dione] gave a melting point of 222.3 to 224.1 °C. COc1ccc(/C=C2\CC(=O)NC2=O)cc1 [Compound 42, (E)-3-(4-methoxybenzylidene)pyrrolidine-2,5-dione] showed a melting point of 243.4 to 245.7 °C. With COc1ccc(/C=C2\CC(=O)NC2=O)cc1OC [Compound 43, (E)-3-(3,4-dimethoxybenzylidene)pyrrolidine-2,5-dione] the melting point was 237.1 to 238.4 °C. With O=C1C/C(=C\c2cc(O)cc(O)c2)C(=O)N1 [Compound 44, (E)-3-(3,5-dihydroxybenzylidene)pyrrolidine-2,5-dione] the melting point was 275.2 to 277.8 °C. With COc1ccc(/C=C2\CC(=O)NC2=O)c(OC)c1 [Compound 45, (E)-3-(2,4-dimethoxybenzylidene)pyrrolidine-2,5-dione] the melting point was 245.7 to 246.6 °C. Compound O=C1C/C(=C\c2ccccc2O)C(=O)N1 [Compound 46, (E)-3-(2-hydroxybenzylidene)pyrrolidine-2,5-dione] has a melting point of 271.3 to 272.1 °C. COc1cc(/C=C2\CC(=O)NC2=O)cc(OC)c1OC [Compound 47, (E)-3-(3,4,5-trimethoxybenzylidene)pyrrolidine-2,5-dione] showed a melting point of 191.2 to 193.6 °C. For COc1cc(/C=C2\CC(=O)NC2=O)cc(OC)c1O [Compound 48, (E)-3-(4-hydroxy-3,5-dimethoxybenzylidene)pyrrolidine-2,5-dione], the melting point was 236.7 to 237.7 °C. Work on COc1ccc(/C=C2\SC(=S)NC2=O)c(OC)c1 [Compound 70, (Z)-5-(2,4-dimethoxybenzylidene)-2-thioxothiazolidin-4-one] yielded a melting point of 272.7 to 275.2 °C. [H]/N=C1/NC(=O)C(=Cc2ccc(O)cc2)N1C [Compound 74, (Z)-5-(4-hydroxybenzylidene)-2-imino-1-methylimidazolidin-4-one] showed a melting point of 285.9 to 288 °C. With [H]/N=C1/NC(=O)C(=Cc2ccc(O)c(OC)c2)N1C [Compound 76, (Z)-5-(4-hydroxy-3-methoxybenzylidene)-2-imino-1-methylimidazolidin-4-one] the melting point was 254.2 to 255.6 °C. [H]/N=C1/NC(=O)C(=Cc2ccc(O)c(OCC)c2)N1C [Compound 77, (Z)-5-(3-ethoxy-4-hydroxybenzylidene)-2-imino-1-methylimidazolidin-4-one] showed a melting point of 254.2 to 255.6 °C. [H]/N=C1/NC(=O)C(=Cc2ccc(OC)c(O)c2)N1C [Compound 78, (Z)-5-(3-hydroxy-4-methoxybenzylidene)-2-imino-1-methylimidazolidin-4-one] showed a melting point of 276.1 to 277.3 °C. Compound COc1ccc(/C=C2/C(=O)NC(=N)N2C)cc1 [Compound 79, (Z)-2-Imino-5-(4-methoxybenzylidene)-1-methylimidazolidin-4-one] has a melting point of 252.1 to 255 °C. For [H]/N=C1/NC(=O)C(=Cc2ccc(OC)c(OC)c2)N1C [Compound 80, (Z)-5-(3,4-dimethoxybenzylidene)-2-imino-1-methylimidazolidin-4-one], the melting point was 257.1 to 259 °C. For [H]/N=C1/NC(=O)C(=Cc2ccc(OC)cc2OC)N1C [Compound 81, (Z)-5-(2,4-dimethoxybenzylidene)-2-imino-1-methylimidazolidin-4-one], the melting point was 244.6 to 245.6 °C. For COc1ccc(/C=C2\NC(=S)NC2=O)cc1 [Compound 104, (Z)-5-(4-methoxybenzylidene)-2-thioxoimidazolidin-4-one], the melting point was 266.9 to 267.5 °C. Work on COc1ccc(/C=C2\NC(=S)NC2=O)cc1OC [Compound 105, (Z)-5-(3,4-dimethoxybenzylidene)-2-thioxoimidazolidin-4-one] yielded a melting point of 236.2 to 238 °C. With COc1ccc(/C=C2\NC(=S)NC2=O)c(OC)c1 [Compound 107, (Z)-5-(2,4-dimethoxybenzylidene)-2-thioxoimidazolidin-4-one] the melting point was 237.1 to 238.6 °C. In the case of COc1cc(/C=C2\NC(=S)NC2=O)cc(OC)c1OC [Compound 109, (Z)-2-thioxo-5-(3,4,5-trimethoxybenzylidene)imidazolidin-4-one], the melting point is reported as 264 to 266.6 °C. Work on [H]/N=C1/NC(=O)C(=Cc2ccc(O)c(O)c2)S1 [Compound 112, (Z)-5-(3,4-dihydroxybenzylidene)-2-iminothiazolidin-4-one] yielded a melting point of over 300 °C. In the case of [H]/N=C1/NC(=O)C(=Cc2ccc(OC)c(OC)c2)S1 [Compound 117, (Z)-5-(3,4-dimethoxybenzylidene)-2-iminothiazolidin-4-one], the melting point is reported as 274.2 to 276.3 °C. Work on [H]/N=C1/NC(=O)C(=Cc2cc(O)cc(O)c2)S1 [Compound 118, (Z)-5-(3,5-dihydroxybenzylidene)-2-iminothiazolidin-4-one] yielded a melting point of over 300 °C. For [H]/N=C1/NC(=O)C(=Cc2ccc(OC)cc2OC)S1 [Compound 119, (Z)-5-(2,4-dimethoxybenzylidene)-2-iminothiazolidin-4-one], the melting point was 249.1 to 250.7 °C. With [H]/N=C1/NC(=O)C(=Cc2ccccc2O)S1 [Compound 120, (Z)-5-(2-hydroxybenzylidene)-2-iminothiazolidin-4-one] the melting point was 210.1 to 211.5 °C. COc1cc(/C=C2\SC(=N)NC2=O)cc(OC)c1OC [Compound 121, (Z)-2-Imino-5-(3,4,5-trimethoxybenzylidene)thiazolidin-4-one] showed a melting point of 253.3 to 254.8 °C. Compound [H]/N=C1/NC(=O)C(=Cc2cc(OC)c(O)c(OC)c2)S1 [Compound 122, (Z)-5-(4-hydroxy-3,5-dimethoxybenzylidene)-2-iminothiazolidin-4-one] has a melting point of 254.3 to 256.6 °C. In the case of COc1cc(/C=C2\NC(=O)NC2=O)cc(OC)c1O [Compound 151, (Z)-5-(4-hydroxy-3,5-dimethoxybenzylidene)imidazolidine-2,4-dione], the melting point is reported as 266 to 268.5 °C.
